System: 266295-075-R-J1-PDC spheroid viability
Experiment: Anticancer human tumor 266295-075-R-J1-PDC patient-derived head and neck squamous carcinoma cell line growth inhibition [POLQ]
Settings: spheroids with HUVEC and MSC; for IC50: curve of first compound; for viability, T/C: stronger effect = lower value
In short: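 PDC + HUVEC + MSC complex spheroids; POLQ inhibitors ± partner drugs; top conc. at/near clinical Cmax, else 10 microM (SN-38 1 microM), half-log dilutions; 37 degrees C, 5% CO2.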
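Also: spheroids exposed to compounds for seven days before readout.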

With `CC(C)n1c(=O)n(C)c2cnc3cc(F)c(-c4ccc(OCCCN5CCCCC5)nc4)cc3c21` + Cc1cccc(N(C)C(=O)C2C(O)CCN2c2nc(C)cc(C(F)(F)F)c2C#N)c1 the IC50 (second compound 0.0316 µM) was > 10 µM, the IC50 (second compound 0.1 µM) was > 10 µM and the IC50 (second compound 0.316 µM) was > 10 µM. For the same molecule, the IC50 (second compound 1 µM) was > 10 µM, the IC50 (second compound 3.16 µM) was > 10 µM and the IC50 (second compound 10 µM) was > 10 µM. The viability, T/C (second compound 0.0316 µM, first compound 0.0316 µM) was 101%, the viability, T/C (second compound 0.0316 µM, first compound 0.1 µM) was 127% and the viability, T/C (second compound 0.0316 µM, first compound 0.316 µM) was 95.2%. It also gave a viability, T/C (second compound 0.0316 µM, first compound 1 µM) of 73.6%, a viability, T/C (second compound 0.0316 µM, first compound 3.16 µM) of 93.2% and a viability, T/C (second compound 0.0316 µM, first compound 10 µM) of 60.7%. It also gave a viability, T/C (second compound 0.1 µM, first compound 0.0316 µM) of 99.1%, a viability, T/C (second compound 0.1 µM, first compound 0.1 µM) of 111% and a viability, T/C (second compound 0.1 µM, first compound 0.316 µM) of 98.9%. For the same molecule, the viability, T/C (second compound 0.1 µM, first compound 1 µM) was 83.4%, the viability, T/C (second compound 0.1 µM, first compound 3.16 µM) was 73.5% and the viability, T/C (second compound 0.1 µM, first compound 10 µM) was 69.8%. It also gave a viability, T/C (second compound 0.316 µM, first compound 0.0316 µM) of 125%, a viability, T/C (second compound 0.316 µM, first compound 0.1 µM) of 118% and a viability, T/C (second compound 0.316 µM, first compound 0.316 µM) of 96.8%. It also gave a viability, T/C (second compound 0.316 µM, first compound 1 µM) of 90.8%, a viability, T/C (second compound 0.316 µM, first compound 3.16 µM) of 88.1% and a viability, T/C (second compound 0.316 µM, first compound 10 µM) of 61.9%. The viability, T/C (second compound 1 µM, first compound 0.0316 µM) was 103%, the viability, T/C (second compound 1 µM, first compound 0.1 µM) was 90.8% and the viability, T/C (second compound 1 µM, first compound 0.316 µM) was 95.3%. For the same molecule, the viability, T/C (second compound 1 µM, first compound 1 µM) was 91.3%, the viability, T/C (second compound 1 µM, first compound 3.16 µM) was 78.4% and the viability, T/C (second compound 1 µM, first compound 10 µM) was 60.3%. It also gave a viability, T/C (second compound 3.16 µM, first compound 0.0316 µM) of 91.8%, a viability, T/C (second compound 3.16 µM, first compound 0.1 µM) of 95.4% and a viability, T/C (second compound 3.16 µM, first compound 0.316 µM) of 88.8%. It also gave a viability, T/C (second compound 3.16 µM, first compound 1 µM) of 90.8%, a viability, T/C (second compound 3.16 µM, first compound 3.16 µM) of 80.2% and a viability, T/C (second compound 3.16 µM, first compound 10 µM) of 64.9%. For the same molecule, the viability, T/C (second compound 10 µM, first compound 0.0316 µM) was 97.3%, the viability, T/C (second compound 10 µM, first compound 0.1 µM) was 103% and the viability, T/C (second compound 10 µM, first compound 0.316 µM) was 96.5%. The viability, T/C (second compound 10 µM, first compound 1 µM) was 100%, the viability, T/C (second compound 10 µM, first compound 3.16 µM) was 78.9% and the viability, T/C (second compound 10 µM, first compound 10 µM) was 67.1%.
